IC50 and Ki data for 16 molecules are collected here from ChEMBL document CHEMBL1909046, “DrugMatrix in vitro pharmacology data”.

pIC50, pKi: −log10 of the molar value.

In one test the target is T1, Calcitonin receptor (Homo sapiens, UniProt P30988). Note: in other assays of this panel Not Active means under 50% inhibition at 10 µM.
T1 sequence (P30988 whole entry): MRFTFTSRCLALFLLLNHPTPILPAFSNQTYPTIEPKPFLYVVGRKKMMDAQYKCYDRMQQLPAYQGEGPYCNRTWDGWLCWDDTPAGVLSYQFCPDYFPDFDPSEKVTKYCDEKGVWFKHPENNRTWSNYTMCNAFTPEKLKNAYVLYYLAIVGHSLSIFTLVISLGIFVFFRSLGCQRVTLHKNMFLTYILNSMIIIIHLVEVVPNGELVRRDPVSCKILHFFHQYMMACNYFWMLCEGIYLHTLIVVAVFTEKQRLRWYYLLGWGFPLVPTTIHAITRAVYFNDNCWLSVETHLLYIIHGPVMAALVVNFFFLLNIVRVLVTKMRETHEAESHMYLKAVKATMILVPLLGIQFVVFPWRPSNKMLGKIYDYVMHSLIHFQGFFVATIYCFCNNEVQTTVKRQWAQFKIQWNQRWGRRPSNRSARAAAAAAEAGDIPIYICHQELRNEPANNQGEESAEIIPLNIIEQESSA
Type of test: cell membranes, Membrane. To be noted: t47d.

A short description of test [1]: DRUGMATRIX: Calcium Channel Type L, Phenylalkylamine radioligand binding (ligand: [3H] (-)-Desmethoxyverapamil (D-888)). Format: cell membranes, Rattus norvegicus, Wistar, Brain, Membrane. Conditions: Not Active = under 50% inhibition at 10 µM.
Test [2] deals with Sodium-dependent dopamine transporter (Homo sapiens, UniProt Q01959). The experiment in a line: DRUGMATRIX: Dopamine Transporter radioligand binding (ligand: [125I] RTI-55). Type of test: cell membranes, CHO-K1, Membrane. Conditions: cho-k1; Not Active = under 50% inhibition at 10 µM.
Test [3] can be described thus: DRUGMATRIX: GABAA, Muscimol, Central radioligand binding (ligand: [3H] Muscimol). Format: cell membranes, Rattus norvegicus, Wistar, Brain, Membrane. Conditions: Not Active = under 50% inhibition at 10 µM.
Test [4] is described as follows: DRUGMATRIX: Platelet-Derived Growth Factor (PDGF) radioligand binding (ligand: [125I] PDGF). Format: cell-based. Conditions: nih3t3; Not Active = under 50% inhibition at 10 µM.
The target in test [5] is Matrix metalloproteinase-9 (Homo sapiens, UniProt P14780). Type of test: cell-based.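 Note: inhibition of isolated MMP-9 enzyme activity toward a synthetic peptide substrate, from the DrugMatrix protease screening panel; in other assays of this panel Not Active means under 50% inhibition at 10 µM.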
The target in test [6] is 5-hydroxytryptamine receptor 1B (Rattus norvegicus, UniProt P28564). Format: cell membranes, Wistar, Cerebral cortex, Membrane. Note: in other assays of this panel Not Active means under 50% inhibition at 10 µM.
Chain of 5-hydroxytryptamine receptor 1B (P28564 whole entry): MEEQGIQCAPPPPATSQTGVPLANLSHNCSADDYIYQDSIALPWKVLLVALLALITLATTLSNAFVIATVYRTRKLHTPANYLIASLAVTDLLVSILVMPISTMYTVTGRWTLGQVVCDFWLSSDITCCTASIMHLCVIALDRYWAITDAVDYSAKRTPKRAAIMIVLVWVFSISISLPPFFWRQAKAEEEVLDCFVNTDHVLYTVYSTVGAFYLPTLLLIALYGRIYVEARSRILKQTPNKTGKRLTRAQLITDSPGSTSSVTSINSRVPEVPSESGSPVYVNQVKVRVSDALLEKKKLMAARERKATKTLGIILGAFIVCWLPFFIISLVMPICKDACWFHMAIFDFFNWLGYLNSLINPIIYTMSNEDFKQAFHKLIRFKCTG

Chain of Matrix metalloproteinase-9 (P14780 whole entry): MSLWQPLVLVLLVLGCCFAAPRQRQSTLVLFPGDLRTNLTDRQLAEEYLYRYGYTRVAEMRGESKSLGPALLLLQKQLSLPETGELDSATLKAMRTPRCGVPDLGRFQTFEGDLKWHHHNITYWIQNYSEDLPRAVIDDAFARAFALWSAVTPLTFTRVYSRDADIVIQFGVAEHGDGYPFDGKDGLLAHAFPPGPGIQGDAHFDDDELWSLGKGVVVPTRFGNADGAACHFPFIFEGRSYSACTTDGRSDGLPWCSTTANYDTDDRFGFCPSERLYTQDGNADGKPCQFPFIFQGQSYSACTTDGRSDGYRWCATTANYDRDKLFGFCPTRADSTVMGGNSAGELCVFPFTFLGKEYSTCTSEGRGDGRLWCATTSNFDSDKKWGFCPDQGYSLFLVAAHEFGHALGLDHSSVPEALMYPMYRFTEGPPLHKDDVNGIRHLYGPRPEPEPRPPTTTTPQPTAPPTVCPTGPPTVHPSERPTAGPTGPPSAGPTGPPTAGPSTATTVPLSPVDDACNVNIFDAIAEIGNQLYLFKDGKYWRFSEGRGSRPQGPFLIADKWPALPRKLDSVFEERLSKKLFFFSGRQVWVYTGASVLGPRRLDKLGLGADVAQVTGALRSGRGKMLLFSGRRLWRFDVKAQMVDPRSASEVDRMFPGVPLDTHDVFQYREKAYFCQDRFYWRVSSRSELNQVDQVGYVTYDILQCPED
Chain of Sodium-dependent dopamine transporter (Q01959 whole entry): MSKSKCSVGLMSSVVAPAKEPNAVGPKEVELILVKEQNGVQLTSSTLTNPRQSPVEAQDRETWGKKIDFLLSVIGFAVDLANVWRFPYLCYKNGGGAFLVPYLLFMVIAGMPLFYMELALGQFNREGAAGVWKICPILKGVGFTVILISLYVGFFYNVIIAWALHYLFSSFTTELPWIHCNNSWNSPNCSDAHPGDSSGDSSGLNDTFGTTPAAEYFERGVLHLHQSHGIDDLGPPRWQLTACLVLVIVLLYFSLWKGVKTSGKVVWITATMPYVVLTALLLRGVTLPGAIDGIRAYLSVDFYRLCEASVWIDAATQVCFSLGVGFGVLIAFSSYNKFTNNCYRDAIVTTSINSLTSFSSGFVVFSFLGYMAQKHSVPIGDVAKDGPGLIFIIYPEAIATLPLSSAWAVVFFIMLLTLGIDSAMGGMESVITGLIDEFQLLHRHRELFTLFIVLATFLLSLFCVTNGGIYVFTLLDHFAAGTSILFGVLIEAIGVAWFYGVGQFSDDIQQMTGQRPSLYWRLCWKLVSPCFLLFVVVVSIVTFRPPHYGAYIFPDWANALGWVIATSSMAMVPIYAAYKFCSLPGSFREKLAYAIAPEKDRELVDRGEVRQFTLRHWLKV

With LEAD(IV) ACETATE, the IC50 entry (on Calcitonin receptor; in test [1]; in test [2]; in test [3]; in test [4]; in test [5]) was “Not Active” each time. Besides, in test [6], the IC50 entry was “Not Active”. For the same molecule, the Ki result (on Calcitonin receptor; in test [1]; in test [2]; in test [3]; in test [4]; in test [5]) was “Not Active” each time. The Ki result in test [6] is “Not Active”.
Take `CC#C[C@]1(O)CC[C@H]2[C@@H]3CCC4=CC(=O)CCC4=C3[C@@H](c3ccc(N(C)C)cc3)C[C@@]21C` [MIFEPRISTONE]: the IC50 entry (on Calcitonin receptor; in test [2]; in test [3]; in test [4]; in test [5]; in test [6]) was “Not Active” throughout. For the same molecule, the pIC50 in test [1] (read-out: IC50) was 4.80. Moreover, in test [1] (read-out: Ki), the pKi is 4.81. Besides, the Ki result in test [3] and in test [4] was “Not Active” in each case.
Consider `Cc1[nH]c(=O)c(C#N)cc1-c1ccncc1` [MILRINONE], for which the IC50 entry (on Calcitonin receptor; in test [1]; in test [2]; in test [3]; in test [4]; in test [5]) was “Not Active” throughout. In addition, the IC50 result in test [6] is given as “Not Active”. The Ki entry in test [1], in test [3] and in test [4] was “Not Active” each time.
As to `CCN(CC)N=O` [N-NITROSODIETHYLAMINE], the IC50 result (on Calcitonin receptor; in test [1]; in test [2]; in test [3]; in test [4]; in test [5]) was “Not Active” throughout. Besides, the IC50 result in test [6] is given as “Not Active”. Besides, the Ki result in test [1], in test [3] and in test [4] was “Not Active” in each case.
Turning to `Cc1ccc(S(=O)(=O)NC(=O)NN2CCCCCC2)cc1` [TOLAZAMIDE], the IC50 result (on Calcitonin receptor; in test [1]; in test [2]; in test [3]; in test [4]; in test [5]) was “Not Active” each time. The IC50 result in test [6] was “Not Active”. The Ki entry in test [1], in test [3] and in test [4] was “Not Active” each time.
On to `CC(O)C(=O)O` (centres undefined) [LACTIC ACID], for which the IC50 result (at Calcitonin receptor; in test [1]; in test [2]; in test [3]; in test [4]; in test [5]) was “Not Active” in each case. Besides, the IC50 result in test [6] is on record as “Not Active”. Besides, the Ki entry in test [1], in test [3] and in test [4] was “Not Active” throughout.
With `CS(=O)(=O)c1ccc(C2=C(c3ccccc3)C(=O)OC2)cc1` [ROFECOXIB], the IC50 result (at Calcitonin receptor; in test [1]; in test [2]; in test [3]; in test [4]; in test [5]) was “Not Active” each time. Besides, in test [6], the IC50 result is recorded as “Not Active”. In addition, the Ki result in test [1], in test [3] and in test [4] was “Not Active” each time.
As to `CCOC(=O)C1=C(C)NC(C)=C(C(=O)OCC)C1c1ccccc1/C=C/C(=O)OC(C)(C)C` [LACIDIPINE], the IC50 entry (on Calcitonin receptor; in test [1]; in test [2]; in test [3]; in test [4]; in test [5]) was “Not Active” in each case. Besides, the IC50 result in test [6] is on record as “Not Active”. For the same molecule, the Ki entry in test [1], in test [3] and in test [4] was “Not Active” throughout.
With `CC(N)C12CC3CC(CC(C3)C1)C2` (centres undefined) [RIMANTADINE], the IC50 result (on Calcitonin receptor; in test [1]; in test [2]; in test [3]; in test [4]; in test [5]) was “Not Active” throughout. Also, the IC50 entry in test [6] is “Not Active”. Also, the Ki result in test [1], in test [3] and in test [4] was “Not Active” each time.
On to `CC(Cl)(Cl)Cl` [TRICHLOROETHANE], for which the IC50 entry (at Calcitonin receptor; in test [1]; in test [2]; in test [3]; in test [4]; in test [5]) was “Not Active” throughout. For the same molecule, in test [6], the IC50 result is “Not Active”. Further, the Ki entry in test [1], in test [3] and in test [4] was “Not Active” each time.
As to `O=C(O)c1cc(/N=N/c2ccc(S(=O)(=O)Nc3ccccn3)cc2)ccc1O` [SULFASALAZINE], the IC50 entry (on Calcitonin receptor; in test [1]; in test [2]; in test [3]; in test [4]; in test [5]) was “Not Active” in each case. Besides, the IC50 result in test [6] was “Not Active”. For the same molecule, the Ki result in test [1], in test [3] and in test [4] was “Not Active” each time.
In the case of `Cc1cccc(C)c1NC(=O)C(C)N` (centres undefined) [TOCAINIDE], the IC50 result (on Calcitonin receptor; in test [1]; in test [2]; in test [3]; in test [4]; in test [5]) was “Not Active” in each case. In test [6], the IC50 result is given as “Not Active”. Also, the Ki entry in test [1], in test [3] and in test [4] was “Not Active” each time.
For the molecule `CO[C@@]12[C@H](COC(N)=O)C3=C(C(=O)C(C)=C(N)C3=O)N1C[C@@H]1N[C@@H]12` [MITOMYCIN], the IC50 entry (at Calcitonin receptor; in test [1]; in test [2]; in test [3]; in test [4]; in test [5]) was “Not Active” each time. Further, in test [6], the IC50 entry is on record as “Not Active”. Also, the Ki result in test [1], in test [3] and in test [4] was “Not Active” in each case.
For `Nc1nc(N)c2nc(-c3ccccc3)c(N)nc2n1`, the IC50 entry (at Calcitonin receptor; in test [1]; in test [2]; in test [3]; in test [4]; in test [5]) was “Not Active” in each case. In addition, the IC50 result in test [6] is given as “Not Active”. Besides, the Ki result in test [1], in test [3] and in test [4] was “Not Active” each time.
Consider `CC1=C(/C=C/C(C)=C/C=C/C(C)=C/C(=O)O)C(C)(C)CCC1` [TRETINOIN], for which the IC50 result (on Calcitonin receptor; in test [1]; in test [2]; in test [3]; in test [4]; in test [5]) was “Not Active” in each case. In test [6], the IC50 result is listed as “Not Active”. For the same molecule, the Ki result in test [1], in test [3] and in test [4] was “Not Active” each time.
Take `CC[C@@]1(O)C(=O)OCc2c1cc1n(c2=O)Cc2cc3c(CN(C)C)c(O)ccc3nc2-1` [TOPOTECAN]: the IC50 entry (on Calcitonin receptor; in test [1]; in test [2]; in test [3]; in test [4]; in test [5]) was “Not Active” each time. Besides, the IC50 result in test [6] is recorded as “Not Active”. Further, the Ki entry in test [1], in test [3] and in test [4] was “Not Active” throughout.

By pIC50 is commonly meant the IC50 on a negative log10 scale, so that one unit is a factor of ten. The term pKi denotes the negative decadic logarithm of the Ki, by convention in mol/L.
